Laboratory results reported in patent US20240294551A1 (AMGEN INC., priority 2022, published 2024).

Tests used:
[1] = biological target: His-tagged KRAS G12D protein (Homo sapiens (Human), UniProt P01116, G12D); experiment: KRAS G12D TR-FRET Assay; format: binding; details: read-out: KRAS G12D Binding IC50
Description: Compounds of interest were prepared in a dose-response titration in DMSO, and 80 nL were added via Labcyte Echo to each well of a 384-well plate (Perkin Elmer 6008280). The His-tagged KRAS G12D protein (Amgen) was diluted to 20 nM in Assay Buffer (20 mM HEPES, pH 7.4, 10 mM MgCl2, 50 mM NaCl, 0.1% BSA, 0.01% Tween-20, 10 μM GDP) and 2 μL was added to the appropriate wells of the 384-well plate. The plate was incubated for 30 minutes at room temperature. Biotinylated KRPep-2d substrate (Amgen) was diluted to 20 nM in Assay Buffer and 2 μL was added to all wells and incubated for 1 hour at room temperature. Detection Reagent (0.4 nM LANCE Eu-W1024 Anti-6×His (Perkin Elmer AD0401), 5 nM streptavidin-d2 (Cisbio 610SADLA)) was prepared in Assay Buffer, then 4 μL was added to the plate and incubated for 1 hour at room temperature. Plates were read using PerkinElmer EnVision (ex: 320 nm, em1: 665 nm, em2: 615 nm) and em1/em2 data was used to generate curve fits using a 4-parameter logistic model to calculate IC50 values.

[2] = biological target: GDP-bound KRAS protein (aa 1-169), containing both G12D and C118A amino acid substitutions (Homo sapiens (Human), UniProt P01116, C118A/G12D); experiment: KRAS G12D Coupled Nucleotide Exchange Assay; format: biochemical; details: read-out: KRAS G12D Coupled Exchange IC50
GDP-bound KRAS protein (aa 1-169), containing both G12D and C118A amino acid substitutions, sequence (P01116 other isoform, or with tags, fused parts or gaps G12D/C118A): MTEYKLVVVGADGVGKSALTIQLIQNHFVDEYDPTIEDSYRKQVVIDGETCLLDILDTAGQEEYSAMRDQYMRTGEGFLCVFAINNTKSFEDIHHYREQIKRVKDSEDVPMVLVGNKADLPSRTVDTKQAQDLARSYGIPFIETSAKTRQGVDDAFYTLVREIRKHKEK
Description: KRAS G12D Coupled Nucleotide Exchange Assay
Following compound pre-incubation, purified SOS protein (aa 564-1049) and GTP (Roche 10106399001) were added to the assay wells and incubated for an additional 30 min. To determine the extent of inhibition of SOS-mediated nucleotide exchange, purified GST-tagged cRAF (aa 1-149), nickel chelate AlphaLISA acceptor beads (PerkinElmer AL108R), and AlphaScreen glutathione donor beads (PerkinElmer 6765302) were added to the assay wells and incubated for 10 minutes. The assay plates were then read on a PerkinElmer EnVision Multilabel Reader, using AlphaScreen® technology, and data were analyzed using a 4-parameter logistic model to calculate IC50 values.

His-tagged KRAS G12D protein, sequence (P01116 other isoform, or with tags, fused parts or gaps G12D): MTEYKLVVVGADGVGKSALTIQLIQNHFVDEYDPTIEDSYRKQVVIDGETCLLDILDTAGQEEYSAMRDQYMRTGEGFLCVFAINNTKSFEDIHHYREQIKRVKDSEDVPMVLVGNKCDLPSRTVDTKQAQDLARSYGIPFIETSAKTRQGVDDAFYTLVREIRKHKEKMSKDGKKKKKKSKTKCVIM

IC50 [1] | IC50 [2] | SMILES
616 nM | 339 nM | O=C1CCCCc2c(Cl)cc3[nH]ncc3c2-c2ncc3c(nc(OC[C@@]45CCCN4C[C@H](F)C5)nc3c2F)N2C[C@H]3CN1[C@H]3C2 [Example 169, (18S,19R)-9-chloro-30-fluoro-24-(((2R,7aS)-2-fluorotetrahydro-1H-pyrrolo[1,2-a]pyrrol-7a(5H)-yl)methoxy)-5,6,16,21,23,25,29-heptaazaheptacyclo[24.3.1.1~18,21~.0~2,10~.0~3,7~.0~16,19~.0~22,27~]hentriaconta-1(30),2,4,7,9,22,24,26,28-nonaen-15-one]
2490 nM | 1540 nM | Cc1cc2[nH]ncc2c2c1CCCCC(=O)N[C@@H]1CN(C[C@@H]3C[C@@H]31)c1nc(OC[C@@]34CCCN3C[C@H](F)C4)nc3c(F)c-2ncc13 [Example 170, (26S,27S,29R)-32-fluoro-4-(((2R,7aS)-2-fluorotetrahydro-1H-pyrrolo[1,2-a]pyrrol-7a(5H)-yl)methoxy)-18-methyl-1,3,5,9,14,15,25-heptaazaheptacyclo[24.4.1.1~6,10~.0~2,7~.0~11,19~.0~12,16~.0~27,29~]dotriaconta-2,4,6,8,10(32),11,13,16,18-nonaen-24-one]
1770 nM | 1030 nM | O=C1N[C@@H]2CN(C[C@@H]3C[C@@H]32)c2nc(OC[C@@]34CCCN3C[C@H](F)C4)nc3c(F)c(ncc23)-c2c(c(Cl)cc3[nH]ncc23)CCC[C@H]1F [Example 172, (23R,26S,27S,29R)-18-chloro-23,32-difluoro-4-(((2R,7aS)-2-fluorotetrahydro-1H-pyrrolo[1,2-a]pyrrol-7a(5H)-yl)methoxy)-1,3,5,9,14,15,25-heptaazaheptacyclo[24.4.1.1~6,10~.0~2,7~.0~11,19~.0~12,16~.0~27,29~]dotriaconta-2,4,6,8,10(32),11,13,16,18-nonaen-24-one]
1570 nM | 1110 nM | O=C1N[C@H]2CN(C[C@H]3C[C@H]32)c2nc(OC[C@@]34CCCN3C[C@H](F)C4)nc3c(F)c(ncc23)-c2c(c(Cl)cc3[nH]ncc23)CCC[C@H]1F [Example 173, (23R,26R,27R,29S)-18-chloro-23,32-difluoro-4-(((2R,7aS)-2-fluorotetrahydro-1H-pyrrolo[1,2-a]pyrrol-7a(5H)-yl)methoxy)-1,3,5,9,14,15,25-heptaazaheptacyclo[24.4.1.1~6,10~.0~2,7~.0~11,19~.0~12,16~.0~27,29~]dotriaconta-2,4,6,8,10(32),11,13,16,18-nonaen-24-one]
287 nM | 179 nM | O=C1OCCCc2c(Cl)cc3[nH]ncc3c2-c2ncc3c(nc(OC[C@@]45CCCN4C[C@H](F)C5)nc3c2F)N2CC[C@@H]3CCN1[C@@H]3C2 [Example 176, (28R,32S)-18-chloro-33-fluoro-4-(((2R,7aS)-2-fluorotetrahydro-1H-pyrrolo[1,2-a]pyrrol-7a(5H)-yl)methoxy)-23-oxa-1,3,5,9,14,15,25-heptaazaheptacyclo[23.5.2.1~6,10~.0~2,7~.0~11,19~.0~12,16~.0~28,32~]tritriaconta-2,4,6,8,10(33),11,13,16,18-nonaen-24-one]
79 nM | 44 nM | CN1C(=O)OCCCc2c(Cl)cc3[nH]ncc3c2-c2ncc3c(nc(OC[C@@]45CCCN4C[C@H](F)C5)nc3c2F)N2CCOC[C@@H]1C2 [Example 178, (26S)-18-chloro-32-fluoro-4-(((2R,7aS)-2-fluorotetrahydro-1H-pyrrolo[1,2-a]pyrrol-7a(5H)-yl)methoxy)-25-methyl-23,28-dioxa-1,3,5,9,14,15,25-heptaazahexacyclo[24.4.1.1~6,10~.0~2,7~.0~11,19~.0~12,16~]dotriaconta-2,4,6,8,10(32),11,13,16,18-nonaen-24-one]
1510 nM | 689 nM | CN1CCC[C@H]1COc1nc2c3cnc(c(F)c3n1)-c1c(c(Cl)cc3[nH]ncc13)CCCOC(=O)O[C@@]1(C)COCCN2C1 [Example 180, (26R)-18-chloro-32-fluoro-26-methyl-4-(((2S)-1-methyl-2-pyrrolidinyl)methoxy)-23,25,28-trioxa-1,3,5,9,14,15-hexaazahexacyclo[24.4.1.1~6,10~.0~2,7~.0~11,19~.0~12,16~]dotriaconta-2,4,6,8,10(32),11,13,16,18-nonaen-24-one]
7570 nM | 3620 nM | Cc1cc2[nH]ncc2c2c1CCCOC(=O)O[C@@]1(C)COCCN(C1)c1nc(OC[C@@H]3CCCN3C)nc3c(F)c-2ncc13 [Example 182, (26R)-32-fluoro-18,26-dimethyl-4-(((2S)-1-methyl-2-pyrrolidinyl)methoxy)-23,25,28-trioxa-1,3,5,9,14,15-hexaazahexacyclo[24.4.1.1~6,10~.0~2,7~.0~11,19~.0~12,16~]dotriaconta-2,4,6,8,10(32),11,13,16,18-nonaen-24-one]
71 nM | 44 nM | O=C1OCCCc2c(Cl)cc3[nH]ncc3c2-c2c(F)cc3c(nc(OC[C@@]45CCCN4C[C@H](F)C5)nc3c2F)N2CCOC[C@H](C2)O1 [Example 188, m-(26S)-18-chloro-9,32-difluoro-4-(((2R,7aS)-2-fluorotetrahydro-1H-pyrrolo[1,2-a]pyrrol-7a(5H)-yl)methoxy)-23,25,28-trioxa-1,3,5,14,15-pentaazahexacyclo[24.4.1.1~6,10~.0~2,7~.0~11,19~.0~12,16~]dotriaconta-2,4,6,8,10(32),11,13,16,18-nonaen-24-one]
167 nM | 214 nM | O=C1OCCCc2c(Cl)cc3[nH]ncc3c2-c2ncc3c(nc(O[C@H]4CCOC4)nc3c2F)N2CCOC[C@H](C2)O1 [Example 196, (26S)-18-chloro-32-fluoro-4-((3S)-tetrahydro-3-furanyloxy)-23,25,28-trioxa-1,3,5,9,14,15-hexaazahexacyclo[24.4.1.1~6,10~.0~2,7~.0~11,19~.0~12,16~]dotriaconta-2,4,6,8,10(32),11,13,16,18-nonaen-24-one]
90 nM | 105 nM | O=C1OCCCc2c(Cl)cc3[nH]ncc3c2-c2ncc3c(nc(O[C@@H]4CCOC4)nc3c2F)N2CCOC[C@H](C2)O1 [Example 197, (26S)-18-chloro-32-fluoro-4-((3R)-tetrahydro-3-furanyloxy)-23,25,28-trioxa-1,3,5,9,14,15-hexaazahexacyclo[24.4.1.1~6,10~.0~2,7~.0~11,19~.0~12,16~]dotriaconta-2,4,6,8,10(32),11,13,16,18-nonaen-24-one]
435 nM | 431 nM | Cc1nc2c3cnc(c(F)c3n1)-c1c(c(C)cc3[nH]ncc13)CCCOC(=O)O[C@@H]1COCCN2C1 [Example 210, (26S)-32-fluoro-4,18-dimethyl-23,25,28-trioxa-1,3,5,9,14,15-hexaazahexacyclo[24.4.1.1~6,10~.0~2,7~.0~11,19~.0~12,16~]dotriaconta-2,4,6,8,10(32),11,13,16,18-nonaen-24-one]
617 nM | 268 nM | Cc1nc2c3cnc(c(F)c3n1)-c1c(c(C)cc3[nH]ncc13)[C@H]1C[C@H]1COC(=O)O[C@@H]1CCCN2C1 [Example 211, (11S,13R,18R)-31-fluoro-9,25-dimethyl-15,17-dioxa-5,6,22,24,26,30-hexaazaheptacyclo[25.3.1.1~18,22~.0~2,10~.0~3,7~.0~11,13~.0~23,28~]dotriaconta-1(31),2,4,7,9,23,25,27,29-nonaen-16-one]
74 nM | 55 nM | N#Cc1cc(Cl)c2c(c1)-c1ncc3c(nc(OC[C@@]45CCCN4C[C@H](F)C5)nc3c1F)N1CCOC[C@H](C1)OC(=O)OCCC2 [Example 216]
642 nM | 343 nM | Fc1ccc2cccc3c2c1CCOCC[C@@H]1CCCN(C1)c1nc(OC[C@@]24CCCN2C[C@H](F)C4)nc2c(F)c-3ncc12 [Example 223]
63 nM | 39 nM | Fc1c2ncc3c(nc(OC[C@@]45CCCN4C[C@H](F)C5)nc13)N1CCO[C@@H](CCOCCCc3c(Cl)cc4[nH]ncc4c3-2)C1 [Example 224]
77 nM | 9 nM | O[C@H]1c2ncc(o2)CCc2c(Cl)cc3[nH]ncc3c2-c2ncc3c(nc(OC[C@@]45CCCN4C[C@H](F)C5)nc3c2F)N2CCC[C@@H]1C2 [Example 234]
240 nM | 125 nM | OC1CCCCc2c(Cl)cc3[nH]ncc3c2-c2ncc3c(nc(OC[C@@]45CCCN4C[C@H](F)C5)nc3c2F)N2CCOCC(C1)C2 (some centres unmarked) [Example 235]
1290 nM | 1410 nM | Cc1cc2[nH]ncc2c2c1CCCCO[C@H](C)[C@H]1CN(CCO1)c1nc(OC[C@@]34CCCN3C[C@H](F)C4)nc3c(F)c-2ncc13 [Example 241, (16R,17R)-30-fluoro-24-(((2R,7aS)-2-fluorotetrahydro-1H-pyrrolo[1,2-a]pyrrol-7a(5H)-yl)methoxy)-9,16-dimethyl-15,18-dioxa-5,6,21,23,25,29-hexaazahexacyclo[24.3.1.1~17,21~.0~2,10~.0~3,7~.0~22,27~]hentriaconta-1(30),2,4,7,9,22,24,26,28-nonaene]
